# Experimental data as given in patent US12612410B2 (CHILDREN'S HOSPITAL MEDICAL CENTER, priority 2020, dated 2026).
# Biological target: T1, FLT3 D835V (Homo sapiens, UniProt P36888, D835V)
# T1 construct: host or cells: E. coli BL21-derived host (T7 phage) or HEK-293
# T1 sequence (P36888 27-993 D835V): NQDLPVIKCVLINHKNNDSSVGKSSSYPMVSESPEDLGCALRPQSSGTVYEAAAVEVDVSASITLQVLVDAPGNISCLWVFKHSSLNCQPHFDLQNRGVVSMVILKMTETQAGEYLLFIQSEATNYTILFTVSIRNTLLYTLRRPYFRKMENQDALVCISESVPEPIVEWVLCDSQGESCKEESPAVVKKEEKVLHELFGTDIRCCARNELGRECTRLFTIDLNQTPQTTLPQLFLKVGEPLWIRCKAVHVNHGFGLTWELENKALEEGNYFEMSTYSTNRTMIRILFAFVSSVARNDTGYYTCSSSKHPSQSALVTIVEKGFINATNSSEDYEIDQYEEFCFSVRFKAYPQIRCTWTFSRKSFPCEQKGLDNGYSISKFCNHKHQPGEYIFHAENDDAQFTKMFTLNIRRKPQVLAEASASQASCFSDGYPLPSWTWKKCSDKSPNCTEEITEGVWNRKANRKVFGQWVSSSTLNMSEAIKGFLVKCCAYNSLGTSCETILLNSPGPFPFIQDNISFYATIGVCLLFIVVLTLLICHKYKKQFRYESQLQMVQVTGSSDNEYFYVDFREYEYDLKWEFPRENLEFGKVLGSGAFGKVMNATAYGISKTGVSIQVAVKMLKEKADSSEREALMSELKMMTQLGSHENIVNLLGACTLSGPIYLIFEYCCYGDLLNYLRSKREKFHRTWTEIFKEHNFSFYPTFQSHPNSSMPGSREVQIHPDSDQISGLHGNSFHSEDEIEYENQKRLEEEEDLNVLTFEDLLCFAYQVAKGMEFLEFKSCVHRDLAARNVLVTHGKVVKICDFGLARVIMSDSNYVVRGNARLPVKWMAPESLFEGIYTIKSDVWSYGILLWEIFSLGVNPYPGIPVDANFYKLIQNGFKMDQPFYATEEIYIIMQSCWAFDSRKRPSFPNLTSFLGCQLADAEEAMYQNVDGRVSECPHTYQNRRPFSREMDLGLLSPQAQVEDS
# Assay: DiscoverX KINOMEscan competition binding, FLT3 D835V
# From the text: Kinase binding data were obtained for various exemplary compounds prepared according to Examples 1-24 using the DiscoverX KINOMVIEscan® active site-directed competition binding site-directed assay protocol described below. […] As a result, the data report thermodynamic interaction affinities (Kd values), rather than IC50 values that are dependent on ATP concentrations. The assay uses a DNA-tagged version of the protein kinase, and an immobilized ligand bound to a solid support. Compounds that directly or indirectly prevent kinase binding to the immobilized ligand reduce the amount of kinase captured on the solid support, which is detected using an ultra-sensitive qPCR method. Affinity constants reported from the assay have been reported to be independent of the immobilized ligand used that is coupled to the solid support (See supplemental information in Fabian, M. A. et. al., (2005) Nat. Biotechnol. 23, 329-336; Wodicka, L. M. et. al., (2010) Chem. Biol. 17, 1241-1249.)
# Kinase-tagged T7 phage strains were prepared in an E. coli host derived from the BL21 strain. E. coli were grown to log-phase and infected with T7 phage and incubated with shaking at 32° C. until lysis. The lysates were centrifuged and filtered to remove cell debris. The remaining kinases were produced in HEK-293 cells and subsequently tagged with DNA for qPCR detection. Streptavidin-coated magnetic beads were treated with biotinylated small molecule ligands for 30 minutes at room temperature to generate affinity resins for kinase assays. The liganded beads were blocked with excess biotin and washed with blocking buffer (SeaBlock (Pierce), 1% BSA, 0.05% Tween 20, 1 mM DTT) to remove unbound ligand and to reduce non-specific binding. Binding reactions were assembled by combining kinases, liganded affinity beads, and test compounds in 1× binding buffer (20% SeaBlock, 0.17×PBS, 0.05% Tween 20, 6 mM DTT). Test compounds were prepared as 111× stocks in 100% DMSO. Kds were determined using an 11-point 3-fold compound dilution series with three DMSO control points. All compounds for Kd measurements are distributed by acoustic transfer (non-contact dispensing) in 100% DMSO. The compounds were then diluted directly into the assays such that the final concentration of DMSO was 0.9%. All reactions were performed in polypropylene 384-well plates. Each was a final volume of 0.02 mL. The assay plates were incubated at room temperature with shaking for 1 hour and the affinity beads were washed with wash buffer (1×PBS, 0.05% Tween 20). The beads were then re-suspended in elution buffer (1×PBS, 0.05% Tween 20, 0.5 μM nonbiotinylated affinity ligand) and incubated at room temperature with shaking for 30 minutes. The kinase concentration in the eluates was measured by qPCR.
# Binding constants (Kds) were calculated with a standard dose-response curve using the Hill equation. The Hill Slope was set to −1. Curves were fitted using a non-linear least square fit with the Levenberg-Marquardt algorithm.
row,Compound,Kd [nM]
1,"CC1(c2cn3c(-c4cccc(N[C@@H]5CCNC5)n4)cnc3cn2)CC1 [Compound 3, (R)-6-(6-(1-methylcyclopropyl)imidazo[1,2-a]pyrazin-3-yl)-N-(pyrrolidin-3-yl)pyridin-2-amine]",0.023
2,"CC1(c2cn3c(-c4cccc(N[C@H]5CNCC56CC6)n4)cnc3cn2)CC1 [Compound 5, (R)-N-(6-(6-(1-methylcyclopropyl)imidazo[1,2-a]pyrazin-3-yl)pyridin-2-yl)-5-azaspiro[2.4]heptan-7-amine]",0.013
3,"FC(F)(F)C1(c2cn3c(-c4cccc(N[C@@H]5CCNC5)n4)cnc3cn2)CC1 [Compound 10, (R)-N-(pyrrolidin-3-yl)-6-(6-(1-(trifluoromethyl)cyclopropyl)imidazo[1,2-a]pyrazin-3-yl)pyridin-2-amine]",0.083
4,"FC(F)c1cn2c(-c3cccc(N[C@H]4CNC[C@@H]4F)n3)cnc2cn1 [Compound 16, 6-(6-(difluoromethyl)imidazo[1,2-a]pyrazin-3-yl)-N-((3S,4S)-4-fluoropyrrolidin-3-yl)pyridin-2-amine]",0.066
5,"CC(C)(O)c1cn2c(-c3cccc(N[C@@H]4CCCNC4)n3)cnc2cn1 [Compound 30, (R)-2-(3-(6-(piperidin-3-ylamino)pyridin-2-yl)imidazo[1,2-a]pyrazin-6-yl)propan-2-ol]",0.36
6,"CC(C)(O)c1cn2c(-c3cccc(N[C@H]4CNCC[C@@H]4F)n3)cnc2cn1 [Compound 31, 2-(3-(6-(((3S,4S)-4-fluoropiperidin-3-yl)amino)pyridin-2-yl)imidazo[1,2-a]pyrazin-6-yl)propan-2-ol]",0.17

# Results, then the compound that gave them:
row,Kd [nM],Compound
1,0.015,"CC1(c2cn3c(-c4cccc(N[C@H]5CNC[C@@H]5F)n4)cnc3cn2)CC1 [Compound 1, N-((3S,4S)-4-fluoropyrrolidin-3-yl)-6-(6-(1-methylcyclopropyl)imidazo[1,2-a]pyrazin-3-yl)pyridin-2-amine]"
2,0.036,"FC(F)c1cn2c(-c3cccc(N[C@H]4CNCC[C@@H]4F)n3)cnc2cn1 [Compound 25, 6-(6-(difluoromethyl)imidazo[1,2-a]pyrazin-3-yl)-N-((3S,4S)-4-fluoropiperidin-3-yl)pyridin-2-amine]"
3,0.12,"FC(F)(F)COc1cn2c(-c3cccc(N[C@@H]4CCNC4)n3)cnc2cn1 [Compound 38, (R)-N-(pyrrolidin-3-yl)-6-(6-(2,2,2-trifluoroethoxy)imidazo[1,2-a]pyrazin-3-yl)pyridin-2-amine]"
4,0.015,"F[C@H]1CNC[C@@H]1Nc1cccc(-c2cnc3cnc(C4CC4)cn23)n1 [Compound 50, 6-(6-cyclopropylimidazo[1,2-a]pyrazin-3-yl)-N-((3S,4S)-4-fluoropyrrolidin-3-yl)pyridin-2-amine]"
5,0.011,"Cn1cc(-c2cn3c(-c4cccc(N[C@H]5CNC[C@@H]5F)n4)cnc3cn2)cn1 [Compound 52, N-((3S,4S)-4-fluoropyrrolidin-3-yl)-6-(6-(1-methyl-1H-pyrazol-4-yl)imidazo[1,2-a]pyrazin-3-yl)pyridin-2-amine]"
